Results from patent US20250163104A1, “MACROCYCLIC IMMUNOMODULATORS” (priority 2021, published 2025).
pIC50: −log10 of the molar value. Where a SMILES comes first, the peptide text is derived from it. Bridges are numbered along the chain shown (N, C = ends). [ ]: non-standard residue; d: D form. The star is where a group is joined. Phe(4-COOH) = N[C@@H](Cc1ccc(C(=O)O)cc1)C(=O)O; Bip = N[C@@H](Cc1ccc(-c2ccccc2)cc1)C(=O)O; Ala(cPent) = N[C@@H](CC1CCCC1)C(=O)O; Cha = N[C@@H](CC1CCCCC1)C(=O)O; Gly(cPr) = N[C@H](C(=O)O)C1CC1; Chg = N[C@H](C(=O)O)C1CCCCC1; Phg = N[C@H](C(=O)O)c1ccccc1; Carboxymethyl = O=C(O)C*; Nle = CCCC[C@H](N)C(=O)O; Orn = NCCC[C@H](N)C(=O)O; Dab = NCC[C@H](N)C(=O)O; Abu = CC[C@H](N)C(=O)O; Dap = NC[C@H](N)C(=O)O

These compounds were tested against T1, human PD-1 / PD-L1-Ig binding on Jurkat cell line over-expressing human PD-1 (Jurkat-PD-1) (Homo sapiens, UniProt Q15116) (assay: Jurkat-PD-1 Cell Binding High-Content Screening Assay (CBA)). Settings: Jurkat HPD1_PDL1 IC50, Jurkat-PD-1 cells, PE-labeled PD-L1-Ig 20 nM final.
T1 construct: expressed in transfected cells; host or cells: Jurkat
T1 sequence (Q15116 25-288): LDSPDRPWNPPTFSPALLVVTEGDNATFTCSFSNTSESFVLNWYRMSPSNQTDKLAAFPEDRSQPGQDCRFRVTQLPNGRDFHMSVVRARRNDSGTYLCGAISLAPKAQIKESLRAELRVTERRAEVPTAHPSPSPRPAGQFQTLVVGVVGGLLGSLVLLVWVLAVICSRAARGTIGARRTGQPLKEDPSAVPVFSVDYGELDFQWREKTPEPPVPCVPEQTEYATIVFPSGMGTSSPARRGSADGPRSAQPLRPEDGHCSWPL
Type: cell-based
Procedure, shortened: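 Cell-bound PE-labeled PD-L1-Ig (20 nM final, 1 h) measured by high-content imaging after fixation and Hoechst 33342 counterstain. Compound was applied first for 2 h at 37° C. to Jurkat cells over-expressing human PD-1 in DMEM with 10% FCS.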
CC[C@@H]1NC(=O)[C@H](Cc2c[nH]c3ccccc23)NC(=O)[C@H](CC(=O)O)NC(=O)[C@H](Cc2ccc(OCC(=O)O)cc2)NC(=O)[C@H](CN)NC(=O)CSC[C@@H](C(=O)N[C@@H](C)C(N)=O)NC(=O)[C@H]([C@@H](C)O)NC(=O)[C@H](C(C)C)NC(=O)[C@H](CC2CCCCC2)NC(=O)[C@H](CCN)NC(=O)[C@@H](CC(C)C)NC(=O)[C@H](CCCN)NC(=O)[C@H](C(C)C)NC(=O)[C@H](Cc2ccc(-c3ccccc3)cc2)NC1=O [Compound 1729] ({CH2CO}-[Dap]Y(Carboxymethyl)DW[Abu][Bip]V[Orn][dL][Dab][Cha]VTCA-NH2; thioether N-14) was tested, and the pIC50 was 7.77.
Work on CC(C)C[C@H]1NC(=O)[C@H](CCCN)NC(=O)[C@H](C(C)C)NC(=O)[C@H](Cc2ccc(-c3ccccc3)cc2)NC(=O)[C@H](C2CCCCC2)NC(=O)[C@H](Cc2c[nH]c3ccccc23)NC(=O)[C@H](CC(=O)O)NC(=O)[C@H](Cc2ccc(OCC(=O)O)cc2)NC(=O)[C@H](CN)NC(=O)CSC[C@@H](C(=O)N[C@@H](C)C(N)=O)NC(=O)[C@H]([C@@H](C)O)NC(=O)[C@H](C(C)C)NC(=O)[C@H](CC2CCCCC2)NC(=O)[C@H](CCN)NC1=O [Compound 1730] ({CH2CO}-[Dap]Y(Carboxymethyl)DW[Chg][Bip]V[Orn][dL][Dab][Cha]VTCA-NH2; thioether N-14) yielded a pIC50 of 7.49.
In the case of CC(C)C[C@H]1NC(=O)[C@H](CCCN)NC(=O)[C@H](C(C)C)NC(=O)[C@H](Cc2ccc(-c3ccccc3)cc2)NC(=O)[C@H](CC2CCCC2)NC(=O)[C@H](Cc2c[nH]c3ccccc23)NC(=O)[C@H](CC(=O)O)NC(=O)[C@H](Cc2ccc(OCC(=O)O)cc2)NC(=O)[C@H](CN)NC(=O)CSC[C@@H](C(=O)N[C@@H](C)C(N)=O)NC(=O)[C@H]([C@@H](C)O)NC(=O)[C@H](C(C)C)NC(=O)[C@H](CC2CCCCC2)NC(=O)[C@H](CCN)NC1=O [Compound 1731] ({CH2CO}-[Dap]Y(Carboxymethyl)DW[Ala(cPent)][Bip]V[Orn][dL][Dab][Cha]VTCA-NH2; thioether N-14), the pIC50 was 7.89.

Same assay, conditions: Jurkat-PD-1 cells, PE-labeled PD-L1-Ig 20 nM final; read-out: Jurkat HPD1_PDL1 IC50
CC[C@H](C)[C@@H]1NC(=O)[C@H](Cc2ccc(-c3ccccc3)cc2)NC(=O)[C@H](c2ccccc2)NC(=O)[C@H](Cc2c[nH]c3ccccc23)NC(=O)[C@H](CC(=O)O)NC(=O)[C@H](Cc2ccc(OCC(=O)O)cc2)NC(=O)[C@H](CN)NC(=O)CSC[C@@H](C(=O)N[C@@H](C)C(N)=O)NC(=O)[C@H]([C@@H](C)O)NC(=O)[C@H](C(C)C)NC(=O)[C@H](CC2CCCCC2)NC(=O)[C@H](CCN)NC(=O)[C@@H](CC(C)C)NC(=O)[C@H](CCCN)NC1=O [Compound 1728] ({CH2CO}-[Dap]Y(Carboxymethyl)DW[Phg][Bip]I[Orn][dL][Dab][Cha]VTCA-NH2; thioether N-14) gave a pIC50 of 7.53.
Work on CC(C)C[C@H]1NC(=O)[C@H](CCCN)NC(=O)[C@H](C(C)C)NC(=O)[C@H](Cc2ccc(-c3ccccc3)cc2)NC(=O)[C@H](C2CC2)NC(=O)[C@H](Cc2c[nH]c3ccccc23)NC(=O)[C@H](CC(=O)O)NC(=O)[C@H](Cc2ccc(OCC(=O)O)cc2)NC(=O)[C@H](CN)NC(=O)CSC[C@@H](C(=O)N[C@@H](C)C(N)=O)NC(=O)[C@H]([C@@H](C)O)NC(=O)[C@H](C(C)C)NC(=O)[C@H](CC2CCCCC2)NC(=O)[C@H](CCN)NC1=O [Compound 1732] ({CH2CO}-[Dap]Y(Carboxymethyl)DW[Gly(cPr)][Bip]V[Orn][dL][Dab][Cha]VTCA-NH2; thioether N-14) yielded a pIC50 of 7.74.
CC[C@H](C)[C@@H]1NC(=O)[C@H](Cc2c[nH]c3ccccc23)NC(=O)[C@H](CC(=O)O)NC(=O)[C@H](Cc2ccc(OCC(=O)O)cc2)NC(=O)[C@H](CN)NC(=O)CSC[C@@H](C(=O)N[C@@H](C)C(N)=O)NC(=O)[C@H]([C@@H](C)O)NC(=O)[C@H](C(C)C)NC(=O)[C@H](CC2CCCCC2)NC(=O)[C@H](CCN)NC(=O)[C@@H](CC(C)C)NC(=O)[C@H](CCCN)NC(=O)[C@H](C(C)C)NC(=O)[C@H](Cc2ccc(-c3ccccc3)cc2)NC1=O [Compound 1733] ({CH2CO}-[Dap]Y(Carboxymethyl)DWI[Bip]V[Orn][dL][Dab][Cha]VTCA-NH2; thioether N-14) showed a pIC50 of 7.78.
CCCC[C@@H]1NC(=O)[C@H](Cc2c[nH]c3ccccc23)NC(=O)[C@H](CC(=O)O)NC(=O)[C@H](Cc2ccc(OCC(=O)O)cc2)NC(=O)[C@H](CN)NC(=O)CSC[C@@H](C(=O)N[C@@H](C)C(N)=O)NC(=O)[C@H]([C@@H](C)O)NC(=O)[C@H](C(C)C)NC(=O)[C@H](CC2CCCCC2)NC(=O)[C@H](CCN)NC(=O)[C@@H](CC(C)C)NC(=O)[C@H](CCCN)NC(=O)[C@H](C(C)C)NC(=O)[C@H](Cc2ccc(-c3ccccc3)cc2)NC1=O [Compound 1734] ({CH2CO}-[Dap]Y(Carboxymethyl)DW[Nle][Bip]V[Orn][dL][Dab][Cha]VTCA-NH2; thioether N-14) was tested, and the pIC50 was 7.97.
For CCC[C@@H]1NC(=O)[C@H](Cc2c[nH]c3ccccc23)NC(=O)[C@H](CC(=O)O)NC(=O)[C@H](Cc2ccc(OCC(=O)O)cc2)NC(=O)[C@H](CN)NC(=O)CSC[C@@H](C(=O)N[C@@H](C)C(N)=O)NC(=O)[C@H]([C@@H](C)O)NC(=O)[C@H](C(C)C)NC(=O)[C@H](CC2CCCCC2)NC(=O)[C@H](CCN)NC(=O)[C@@H](CC(C)C)NC(=O)[C@H](CCCN)NC(=O)[C@H](C(C)C)NC(=O)[C@H](Cc2ccc(-c3ccccc3)cc2)NC1=O [Compound 1735], the pIC50 was 7.87.
CC(C)C[C@H]1NC(=O)[C@H](CCCN)NC(=O)[C@H](C(C)C)NC(=O)[C@H](Cc2ccc(-c3ccccc3)cc2)NC(=O)[C@H](c2ccccc2)NC(=O)[C@H](Cc2c[nH]c3ccccc23)NC(=O)[C@H](CC(=O)O)NC(=O)[C@H](Cc2ccc(OCC(=O)O)cc2)NC(=O)[C@H](CN)NC(=O)CSC[C@@H](C(=O)N[C@@H](C)C(N)=O)NC(=O)[C@H]([C@@H](C)O)NC(=O)[C@H](C(C)C)NC(=O)[C@H](CC2CCCCC2)NC(=O)[C@H](CCN)NC1=O [Compound 1736] ({CH2CO}-[Dap]Y(Carboxymethyl)DW[Phg][Bip]V[Orn][dL][Dab][Cha]VTCA-NH2; thioether N-14) gave a pIC50 of 7.85.
With CC(C)C[C@H]1NC(=O)[C@H](CCCN)NC(=O)[C@H](C(C)C)NC(=O)[C@H](Cc2ccc(-c3ccccc3)cc2)NC(=O)[C@H](C(C)C)NC(=O)[C@H](Cc2c[nH]c3ccccc23)NC(=O)[C@H](CC(=O)O)NC(=O)[C@H](Cc2ccc(OCC(=O)O)cc2)NC(=O)[C@H](CN)NC(=O)CSC[C@@H](C(=O)N[C@@H](C)C(N)=O)NC(=O)[C@H](CN)NC(=O)[C@H](C(C)C)NC(=O)[C@H](CC2CCCCC2)NC(=O)[C@H](CCN)NC1=O [Compound 1738] ({CH2CO}-[Dap]Y(Carboxymethyl)DWV[Bip]V[Orn][dL][Dab][Cha]V[Dap]CA-NH2; thioether N-14) the pIC50 was 8.08.
Work on CC(C)C[C@H]1NC(=O)[C@H](CCCN)NC(=O)[C@H](C(C)C)NC(=O)[C@H](Cc2ccc(-c3ccccc3)cc2)NC(=O)[C@H](C(C)C)NC(=O)[C@H](Cc2c[nH]c3ccccc23)NC(=O)[C@H](CC(=O)O)NC(=O)[C@H](Cc2ccc(C(=O)O)cc2)NC(=O)[C@H](Cc2ccc(OCC(=O)O)cc2)NC(=O)CSC[C@@H](C(=O)N[C@@H](C)C(N)=O)NC(=O)[C@H](CN)NC(=O)[C@H](C(C)C)NC(=O)[C@H](CC2CCCCC2)NC(=O)[C@H](CCN)NC1=O [Compound 1739] ({CH2CO}-Y(Carboxymethyl)[Phe(4-COOH)]DWV[Bip]V[Orn][dL][Dab][Cha]V[Dap]CA-NH2; thioether N-14) yielded a pIC50 of 8.00.
Compound CC(C)C[C@H]1NC(=O)[C@H](CCCN)NC(=O)[C@H](C(C)C)NC(=O)[C@H](Cc2ccc(-c3ccccc3)cc2)NC(=O)[C@H](C(C)C)NC(=O)[C@H](Cc2c[nH]c3ccccc23)NC(=O)[C@H](CC(=O)O)NC(=O)[C@H](Cc2ccc(OCC(=O)O)cc2)NC(=O)[C@H](Cc2ccc(OCC(=O)O)cc2)NC(=O)CSC[C@@H](C(=O)N[C@@H](C)C(N)=O)NC(=O)[C@H](CN)NC(=O)[C@H](C(C)C)NC(=O)[C@H](CC2CCCCC2)NC(=O)[C@H](CCN)NC1=O [Compound 1740] ({CH2CO}-Y(Carboxymethyl)Y(Carboxymethyl)DWV[Bip]V[Orn][dL][Dab][Cha]V[Dap]CA-NH2; thioether N-14) has a pIC50 of 8.21.
CC(C)C[C@H]1NC(=O)[C@H](CCCN)NC(=O)[C@H](C(C)C)NC(=O)[C@H](Cc2ccc(-c3ccccc3)cc2)NC(=O)[C@H](C(C)C)NC(=O)[C@H](Cc2c[nH]c3ccccc23)NC(=O)[C@H](CC(=O)O)NC(=O)[C@H](Cc2ccc(OCC(=O)O)cc2)NC(=O)[C@H](CN)NC(=O)CSC[C@@H](C(=O)N[C@@H](C)C(N)=O)NC(=O)[C@H](CCCN)NC(=O)[C@H](C(C)C)NC(=O)[C@H](CC2CCCCC2)NC(=O)[C@H](CCN)NC1=O [Compound 1741] ({CH2CO}-[Dap]Y(Carboxymethyl)DWV[Bip]V[Orn][dL][Dab][Cha]V[Orn]CA-NH2; thioether N-14) showed a pIC50 of 8.06.
For CC(C)C[C@H]1NC(=O)[C@H](CCCN)NC(=O)[C@H](C(C)C)NC(=O)[C@H](Cc2ccc(-c3ccccc3)cc2)NC(=O)[C@H](C(C)C)NC(=O)[C@H](Cc2c[nH]c3ccccc23)NC(=O)[C@H](CC(=O)O)NC(=O)[C@H](Cc2ccc(C(=O)O)cc2)NC(=O)[C@H](Cc2ccc(OCC(=O)O)cc2)NC(=O)CSC[C@@H](C(=O)N[C@@H](C)C(N)=O)NC(=O)[C@H](CCCN)NC(=O)[C@H](C(C)C)NC(=O)[C@H](CC2CCCCC2)NC(=O)[C@H](CCN)NC1=O [Compound 1742] ({CH2CO}-Y(Carboxymethyl)[Phe(4-COOH)]DWV[Bip]V[Orn][dL][Dab][Cha]V[Orn]CA-NH2; thioether N-14), the pIC50 was 8.18.
